Experimental data as given in patent publication US6965021B2, “Feedback-resistant pyruvate carboxylase gene from corynebacterium” (Archer-Daniels-Midland Company, priority 2000, dated 2005).

Columns and labels:
[1] = test system: pyruvate carboxylase from ATCC 21253; experiment: Effect of aspartate, ATP and acetyl-CoA on pyruvate carboxylase activity, strain ATCC 21253; type: biochemical, Corynebacterium glutamicum
Procedure: (§1) Pyruvate carboxylate and phosphoenol pyruvate carboxylate assays were performed with permeabilized cells prepared by the following method. Log phase cells were harvested by centrifugation for 10 min at 5000×g at 4° C. and washed with 20 ml of the ice-cold washing buffer (50 mM Tris/HCl [pH 6.3] containing 50 mM NaCl). The cell pellet was resuspended in an ice-cold Hepes buffer (100 mM Hepes [pH 7.5] containing 20% Glycerol) to reach a final concentration of 25 g dry cell weight/liter. Resuspended cells were permeabilized by adding 30 μl of a 10% Hexadecyltrimethyl-ammonium bromide (CTAB) (w/v) solution to 1 ml of cells to give a final concentration of 0.3% (CTAB)(v/v). […]
(§2) Pyruvate carboxylase activity was determined as a function of various concentrations of its substrates: pyruvate, bicarbonate and ATP (FIG. 3). Based on the data generated, the affinity constants of pyruvate carboxylase for its substrates were determined (Table 2). […]
(§3) Aspartate inhibits phosphoenol pyruvate carboxylase (PEPC) activity. To determine the effect of aspartate on the activity of pyruvate carboxylase, aspartate was added at different concentrations in the spectrophotometer cuvette and enzyme activities were measured. […]
(§4) Pyruvate carboxylase activity was measured in the presence of different concentrations of acetyl-CoA (FIG. 6). […]

[2] = test system: pyruvate carboxylase from NRRL B-11474; experiment: Effect of aspartate, ATP and acetyl-CoA on pyruvate carboxylase activity, strain NRRL B-11474; type: biochemical, Corynebacterium glutamicum
Procedure: as §1, §2, §3, §4

[3] = biological target: Corynebacterium glutamicum NRRL B-11474 (BF100) pyruvate carboxylase, feedback-resistant variant (M1V, E153D, A182S, A206S, H227R, A455G, D1120E), SEQ ID NO:2 (Corynebacterium glutamicum, UniProt H7C7K2, A182S/A206S/A455G/D1120E/E153D/H227R/M1V)
Procedure: Pyruvate carboxylate and phosphoenol pyruvate carboxylate assays were performed with permeabilized cells prepared by the following method. Log phase cells were harvested by centrifugation for 10 min at 5000×g at 4° C. and washed with 20 ml of the ice-cold washing buffer (50 mM Tris/HCl [pH 6.3] containing 50 mM NaCl). The cell pellet was resuspended in an ice-cold Hepes buffer (100 mM Hepes [pH 7.5] containing 20% Glycerol) to reach a final concentration of 25 g dry cell weight/liter. Resuspended cells were permeabilized by adding 30 μl of a 10% Hexadecyltrimethyl-ammonium bromide (CTAB) (w/v) solution to 1 ml of cells to give a final concentration of 0.3% (CTAB)(v/v).
The reaction was started at 30° C. with the addition of 10 μl of the permeabilized cell suspension, and the formation of DTNB-thiophenolate was followed over time at 412 nm. Relevant standards and controls were carried out in the same manner.
(§5) To account for the intrinsic loss of OAA during the experiment, a continuous assay was carried out by coupling the two-reaction assay to a one-reaction assay in presence of an excess of citrate synthase. The amount of permeabilized cells added in the assay was optimized to obtain a detectable activity, with the lowest possible background absorbency due to the presence of cells.
(§6) Pyruvate carboxylase activity was determined as a function of various concentrations of its substrates: pyruvate, bicarbonate and ATP (FIG. 3). Based on the data generated, the affinity constants of pyruvate carboxylase for its substrates were determined (Table 2).
To determine the effect of aspartate on the activity of pyruvate carboxylase, aspartate was added at different concentrations in the spectrophotometer cuvette and enzyme activities were measured. As a comparison, the same experiment was carried out with PEPC in ATCC 21253 (FIG. 5).
Pyruvate carboxylase activity was measured in the presence of different concentrations of acetyl-CoA (FIG. 6). […] The effect of acetyl-CoA on citrate synthase itself was studied also.

[4] = biological target: T1, Corynebacterium glutamicum ATCC 21253 pyruvate carboxylase, wild type, SEQ ID NO:19 (Corynebacterium glutamicum, UniProt H7C7K2); experiment: Continuous pyruvate carboxylase assay (permeabilized cells), ATCC 21253; type: biochemical
T1 construct: coupled citrate synthase/DTNB assay
T1 sequence (H7C7K2 1-1140): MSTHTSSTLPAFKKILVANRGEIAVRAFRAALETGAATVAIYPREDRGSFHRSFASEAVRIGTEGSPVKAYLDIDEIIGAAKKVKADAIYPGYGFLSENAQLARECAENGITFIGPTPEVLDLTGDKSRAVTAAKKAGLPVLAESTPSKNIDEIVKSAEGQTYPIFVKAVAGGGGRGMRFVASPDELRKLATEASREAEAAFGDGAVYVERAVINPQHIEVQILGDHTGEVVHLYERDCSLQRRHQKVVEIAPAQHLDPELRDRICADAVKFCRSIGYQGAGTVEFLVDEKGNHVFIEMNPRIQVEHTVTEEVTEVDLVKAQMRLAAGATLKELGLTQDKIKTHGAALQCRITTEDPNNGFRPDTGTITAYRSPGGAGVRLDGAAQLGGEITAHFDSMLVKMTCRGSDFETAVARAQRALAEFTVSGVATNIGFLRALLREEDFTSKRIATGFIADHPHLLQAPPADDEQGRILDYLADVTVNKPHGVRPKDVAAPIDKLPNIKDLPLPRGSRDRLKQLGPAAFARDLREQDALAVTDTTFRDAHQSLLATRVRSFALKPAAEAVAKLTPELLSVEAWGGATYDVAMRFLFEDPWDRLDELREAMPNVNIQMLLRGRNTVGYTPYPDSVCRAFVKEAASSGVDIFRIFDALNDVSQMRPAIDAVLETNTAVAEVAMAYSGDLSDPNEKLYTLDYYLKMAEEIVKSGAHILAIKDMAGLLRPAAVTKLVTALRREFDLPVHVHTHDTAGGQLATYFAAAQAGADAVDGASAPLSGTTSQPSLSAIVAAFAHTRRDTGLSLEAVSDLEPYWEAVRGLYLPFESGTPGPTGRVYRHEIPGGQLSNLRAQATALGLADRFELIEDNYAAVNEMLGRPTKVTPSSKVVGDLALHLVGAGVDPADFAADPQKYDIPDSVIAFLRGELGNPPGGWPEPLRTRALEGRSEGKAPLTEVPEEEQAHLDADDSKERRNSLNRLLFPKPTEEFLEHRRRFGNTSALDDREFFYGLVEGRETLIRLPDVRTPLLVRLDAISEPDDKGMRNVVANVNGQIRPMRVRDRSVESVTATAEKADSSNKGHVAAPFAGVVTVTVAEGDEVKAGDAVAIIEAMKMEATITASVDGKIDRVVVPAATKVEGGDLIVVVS
Procedure: as §1, §6
To determine the effect of aspartate on the activity of pyruvate carboxylase, aspartate was added at different concentrations in the spectrophotometer cuvette and enzyme activities were measured. […]
as §4

CC(=O)C(=O)O = experiment: purified protein, by the assay type; settings: other: permeabilized cells, pH 7.5, 30° C.
Procedure: (§7) To account for the intrinsic loss of OAA during the experiment, a continuous assay was carried out by coupling the two-reaction assay to a one-reaction assay in presence of an excess of citrate synthase. […]

[5] = test system: Nc1ncnc2c1ncn2[C@@H]1O[C@H](COP(=O)(O)OP(=O)(O)OP(=O)(O)O)[C@@H](O)[C@H]1O; experiment: purified protein, by the assay type; settings: other: permeabilized cells, pH 7.5, 30° C.
Procedure: as §7

pyruvate carboxylase [6] = experiment: Controls for the continuous pyruvate carboxylate assay; type: biochemical, Corynebacterium glutamicum; settings: complete mixture + biotin (complete mixture alone 0.30)
Procedure: For determination of pyruvate carboxylate activity, the assay mixture contained 10 mM pyruvic acid, 14 mM KHCO3, 4 mM MgCl2, 1.75 mM ATP, 50 μmole acetyl-CoA, 0.3 mg bovine serum albumin, 0.055 U citrate synthase and 50 mM sodium phosphate buffer ([pH 7.5] containing 0.1 mg 5,5′-Dithio-bis(2-nitrobenzoic acid) (DTNB)) in a final volume of 1 ml. The reaction was started at 30° C. with the addition of 10 μl of the permeabilized cell suspension, and the formation of DTNB-thiophenolate was followed over time at 412 nm. Relevant standards and controls were carried out in the same manner.
as §5
To confirm that the continuous assay specifically detected pyruvate carboxylase activity, controls were carried out by assaying for activity in absence of each reaction component (Table 1). Using these controls, the detected activity was determined to be a carboxylation reaction requiring pyruvate, Mg and ATP.

citrate synthase = experiment: Effect of acetyl-CoA on citrate synthase; type: biochemical; settings: acetyl-CoA on citrate synthase itself
Procedure: Pyruvate carboxylase activity was measured in the presence of different concentrations of acetyl-CoA (FIG. 6). Pyruvate carboxylase activity in both strains increased with increasing acetyl-CoA concentrations. The effect of acetyl-CoA on citrate synthase itself was studied also. […] Therefore, the increasing activity of pyruvate carboxylase with increasing acetyl-CoA concentration is the result of acetyl-CoA activating pyruvate carboxylase.

pyruvate carboxylase [7] = experiment: Continuous pyruvate carboxylase assay with permeabilized cells: affinity constants for substrates and basal activity; type: biochemical, Corynebacterium glutamicum; settings: NRRL B-11474 versus ATCC 21253
[8] = ATP above a concentration of 2 mM
[9] = different concentrations of acetyl-CoA

`Nc1ncnc2c1ncn2[C@@H]1O[C@H](COP(=O)(O)OP(=O)(O)OP(=O)(O)O)[C@@H](O)[C@H]1O` [ATP, adenosine triphosphate] was tested, and the “ATP concentration above which activity is inhibited” value [1] was greater than 2 mM, the “ATP concentration above which activity is inhibited” value [2] was greater than 2 mM and the “inhibition of pyruvate carboxylase activity by ATP” value [3, 8] was “inhibited”. The “inhibition of pyruvate carboxylase activity by ATP” value [4, 8] was “inhibited”.

Work on “Corynebacterium glutamicum NRRL B-11474 (BF100) pyruvate carboxylase, feedback-resistant variant (M1V, E153D, A182S, A206S, H227R, A455G, D1120E), SEQ ID NO:2 (Corynebacterium glutamicum ATCC 13032; A182S/A206S/A455G/D1120E/E153D/H227R/M1V)” yielded a Km (CC(=O)C(=O)O) of 1300 ± 300 µM and a Km [5] of 400 ± 100 µM.

`O=C(O)CCCC[C@@H]1SC[C@@H]2NC(=O)N[C@@H]21` [biotin] was tested, and the “Detected Activity” value (pyruvate carboxylase [6]) was 0.35 Abs/min.mg DCW.

For `CC(=O)SCCNC(=O)CCNC(=O)[C@H](O)C(C)(C)COP(=O)(O)OP(=O)(O)OC[C@H]1O[C@@H](n2cnc3c(N)ncnc32)[C@H](O)[C@@H]1OP(=O)(O)O` [acetyl-CoA], the “pyruvate carboxylase activity with increasing acetyl-CoA concentrations” value [1, 9] was “increased”, the Km (citrate synthase) was 10 µM and the “pyruvate carboxylase activity with increasing acetyl-CoA concentrations” value [2, 9] was “increased”.

Work on `O=C(O)O` [HCO3−, bicarbonate] yielded a Km ([3]; read-out: KM(HCO3−), permeabilized cells, pH 7.5, 30° C.) of 14400 ± 4000 µM and a Km ([4]; permeabilized cells, pH 7.5, 30° C., read-out: KM(HCO3−)) of 2900 ± 800 µM.

B1: Pyc: feedback-resistant pyruvate carboxylase (SEQ ID NO:2) from Corynebacterium glutamicum NRRL B-11474, also known as BF100 (protein)
chain: MTAITLGGLLLKGIITLVSTHTSSTLPAFKKILVANRGEIAVRAFRAALETGAATVAIYPREDRGSFHRSFASEAVRIGTEGSPVKAYLDIDEIIGAAKKVKADAIYPGYGFLSENAQLARECAENGITFIGPTPEVLDLTGDKSRAVTAAKKAGLPVLAESTPSKNIDDIVKSAEGQTYPIFVKAVAGGGGRGMRFVSSPDELRKLATEASREAEAAFGDGSVYVERAVINPQHIEVQILGDRTGEVVHLYERDCSLQRRHQKVVEIAPAQHLDPELRDRICADAVKFCRSIGYQGAGTVEFLVDEKGNHVFIEMNPRIQVEHTVTEEVTEVDLVKAQMRLAAGATLKELGLTQDKIKTHGAALQCRITTEDPNNGFRPDTGTITAYRSPGGAGVRLDGAAQLGGEITAHFDSMLVKMTCRGSDFETAVARAQRALAEFTVSGVATNIGFLRALLREEDFTSKRIATGFIGDHPHLLQAPPADDEQGRILDYLADVTVNKPHGVRPKDVAAPIDKLPNIKDLPLPRGSRDRLKQLGPAAFARDLREQDALAVTDTTFRDAHQSLLATRVRSFALKPAAEAVAKLTPELLSVEAWGGATYDVAMRFLFEDPWDRLDELREAMPNVNIQMLLRGRNTVGYTPYPDSVCRAFVKEAASSGVDIFRIFDALNDVSQMRPAIDAVLETNTAVAEVAMAYSGDLSDPNEKLYTLDYYLKMAEEIVKSGAHILAIKDMAGLLRPAAVTKLVTALRREFDLPVHVHTHDTAGGQLATYFAAAQAGADAVDGASAPLSGTTSQPSLSAIVAAFAHTRRDTGLSLEAVSDLEPYWEAVRGLYLPFESGTPGPTGRVYRHEIPGGQLSNLRAQATALGLADRFELIEDNYAAVNEMLGRPTKVTPSSKVVGDLALHLVGAGVDPADFAADPQKYDIPDSVIAFLRGELGNPPGGWPEPLRTRALEGRSEGKAPLTEVPEEEQAHLDADDSKERRNSLNRLLFPKPTEEFLEHRRRFGNTSALDDREFFYGLVEGRETLIRLPDVRTPLLVRLDAISEPDDKGMRNVVANVNGQIRPMRVRDRSVESVTATAEKADSSNKGHVAAPFAGVVTVTVAEGDEVKAGDAVAIIEAMKMEATITASVDGKIERVVVPAATKVEGGDLIVVVS
With B1 the “basal pyruvate carboxylase activity relative to ATCC 21253” value (pyruvate carboxylase [7]) was “about 5 times”.
